Data published in PMC9027111, “Morphing Natural Product Platensimycin via Heck, Sonogashira, and One-Pot Sonogashira/Cycloaddition Reactions to Produce Antibiotics with In Vivo Activity” (Antibiotics, 2022).
In brackets after ≈: the same amount, converted by molar mass.

How the values were obtained:
Assay type in all cases: cell-based
MRSA 3 = assay: MIC determination (LB agar dilution), clinical MRSA strain 3; details: Staphylococcus aureus, at least two replicates
Experimental: (§1) All of the tested compounds were prepared to different concentrations with methanol, and 150 μL of the respective methanol solution was used to mix with 15 mL LB (Luria–Bertani) medium with 1% agar in each Petri dish. Linezolid and PTM were used as reference compounds for comparison. In vitro bioassay for compounds was carried out using clinical strains of S. aureus, E. coli, and Klebsilla pneumoniae. The bacteria were cultivated in LB medium and incubated for 16 h at 37 °C, 250 rpm. The resulting bacteria were diluted to approximate 0.25 at OD600, which were further diluted 10_4-fold. The diluted bacteria (2 μL) were added to Petri dish containing the respective compounds. The resulting Petri dishes were incubated for 16 h at 37 °C. The determination of MIC is the concentration of Petri dishes with no visible growth of bacteria.

MRSA 4 = assay: MIC determination (LB agar dilution), clinical MRSA strain 4; details: Staphylococcus aureus, at least two replicates
Experimental: as §1

S. aureus ATCC 29213 = assay: MIC determination (LB agar dilution), S. aureus ATCC 29213; details: Staphylococcus aureus, ATCC29213, at least two replicates
Experimental: as §1

MSSA 2 = assay: MIC determination (LB agar dilution), clinical MSSA strain 2; details: Staphylococcus aureus, at least two replicates
Experimental: as §1

MSSA 1 = assay: MIC determination (LB agar dilution), clinical MSSA strain 1; details: Staphylococcus aureus, at least two replicates
Experimental: as §1

SMILES	MIC (MRSA 3)	MIC (MRSA 4)	MIC (S. aureus ATCC 29213)	MIC (MSSA 2)	MIC (MSSA 1)
CCc1ccc(CC2=C3C(=O)C(C)(CCC(=O)Nc4c(O)ccc(C(=O)O)c4O)C4C5CC6CC4(CC6(C)O5)C3C(C(C)=O)=C(C)O2)cc1 (centres unmarked) [C3]	32 µg/mL (≈ 47.8 µM)	32 µg/mL (≈ 47.8 µM)	32 µg/mL (≈ 47.8 µM)	32 µg/mL (≈ 47.8 µM)	32 µg/mL (≈ 47.8 µM)
Cc1ccc(C#CC2=CC34CC5CC(OC5(C)C3)C4C(C)(CCC(=O)Nc3c(O)ccc(C(=O)O)c3O)C2=O)cc1 (centres unmarked) [B10]	8 µg/mL (≈ 14.4 µM)	4 µg/mL (≈ 7.2 µM)	8 µg/mL (≈ 14.4 µM)	4 µg/mL (≈ 7.2 µM)	4 µg/mL (≈ 7.2 µM)
CC(C)(C)NC(=O)C=CC1=CC23CC4CC(OC4(C)C2)C3C(C)(CCC(=O)Nc2c(O)ccc(C(=O)O)c2O)C1=O (centres unmarked) [A9]	8 µg/mL (≈ 14.1 µM)	8 µg/mL (≈ 14.1 µM)	8 µg/mL (≈ 14.1 µM)	8 µg/mL (≈ 14.1 µM)	8 µg/mL (≈ 14.1 µM)
CCCCc1ccc(CC2=C3C(=O)C(C)(CCC(=O)Nc4c(O)ccc(C(=O)O)c4O)C4C5CC6CC4(CC6(C)O5)C3C(C(C)=O)=C(C)O2)cc1 (centres unmarked) [C4]	32 µg/mL (≈ 45.9 µM)	32 µg/mL (≈ 45.9 µM)	32 µg/mL (≈ 45.9 µM)	32 µg/mL (≈ 45.9 µM)	32 µg/mL (≈ 45.9 µM)
CC(=O)C1=C(C)OC(Cc2ccc(Cl)cc2)=C2C(=O)C(C)(CCC(=O)Nc3c(O)ccc(C(=O)O)c3O)C3C4CC5CC3(CC5(C)O4)C12 (centres unmarked) [C7]	32 µg/mL (≈ 47.3 µM)	32 µg/mL (≈ 47.3 µM)	32 µg/mL (≈ 47.3 µM)	32 µg/mL (≈ 47.3 µM)	32 µg/mL (≈ 47.3 µM)
CC(=O)C1=C(C)OC(Cc2ccccc2)=C2C(=O)C(C)(CCC(=O)Nc3c(O)ccc(C(=O)O)c3O)C3C4CC5CC3(CC5(C)O4)C12 (centres unmarked) [C1]	16 µg/mL (≈ 24.9 µM)	16 µg/mL (≈ 24.9 µM)	16 µg/mL (≈ 24.9 µM)	16 µg/mL (≈ 24.9 µM)	16 µg/mL (≈ 24.9 µM)
CC(=O)C1=C(C)OC(Cc2ccc(C)cc2)=C2C(=O)C(C)(CCC(=O)Nc3c(O)ccc(C(=O)O)c3O)C3C4CC5CC3(CC5(C)O4)C12 (centres unmarked) [C2]	16 µg/mL (≈ 24.4 µM)	16 µg/mL (≈ 24.4 µM)	16 µg/mL (≈ 24.4 µM)	16 µg/mL (≈ 24.4 µM)	16 µg/mL (≈ 24.4 µM)
CC(=O)C1=C(C)OC(Cc2cccc(F)c2)=C2C(=O)C(C)(CCC(=O)Nc3c(O)ccc(C(=O)O)c3O)C3C4CC5CC3(CC5(C)O4)C12 (centres unmarked) [C5]	16 µg/mL (≈ 24.3 µM)	16 µg/mL (≈ 24.3 µM)	16 µg/mL (≈ 24.3 µM)	16 µg/mL (≈ 24.3 µM)	16 µg/mL (≈ 24.3 µM)
CC12CC34C=C(C=CC(N)=O)C(=O)C(C)(CCC(=O)Nc5c(O)ccc(C(=O)O)c5O)C3C(CC1C4)O2 (centres unmarked) [A6]	64 µg/mL (≈ 125 µM)	64 µg/mL (≈ 125 µM)	64 µg/mL (≈ 125 µM)	64 µg/mL (≈ 125 µM)	64 µg/mL (≈ 125 µM)
CC(C)NC(=O)C=CC1=CC23CC4CC(OC4(C)C2)C3C(C)(CCC(=O)Nc2c(O)ccc(C(=O)O)c2O)C1=O (centres unmarked) [A8]	32 µg/mL (≈ 57.9 µM)	32 µg/mL (≈ 57.9 µM)	32 µg/mL (≈ 57.9 µM)	32 µg/mL (≈ 57.9 µM)	32 µg/mL (≈ 57.9 µM)
CN(C)C(=O)C=CC1=CC23CC4CC(OC4(C)C2)C3C(C)(CCC(=O)Nc2c(O)ccc(C(=O)O)c2O)C1=O (centres unmarked) [A7]	16 µg/mL (≈ 29.7 µM)	16 µg/mL (≈ 29.7 µM)	16 µg/mL (≈ 29.7 µM)	16 µg/mL (≈ 29.7 µM)	16 µg/mL (≈ 29.7 µM)
CC12CC34C=C(C=CC(=O)OCCO)C(=O)C(C)(CCC(=O)Nc5c(O)ccc(C(=O)O)c5O)C3C(CC1C4)O2 (centres unmarked) [A2]	16 µg/mL (≈ 28.8 µM)	16 µg/mL (≈ 28.8 µM)	16 µg/mL (≈ 28.8 µM)	16 µg/mL (≈ 28.8 µM)	16 µg/mL (≈ 28.8 µM)
CCCCc1ccc(C#CC2=CC34CC5CC(OC5(C)C3)C4C(C)(CCC(=O)Nc3c(O)ccc(C(=O)O)c3O)C2=O)cc1 (centres unmarked) [B12]	8 µg/mL (≈ 13.4 µM)	8 µg/mL (≈ 13.4 µM)	8 µg/mL (≈ 13.4 µM)	8 µg/mL (≈ 13.4 µM)	8 µg/mL (≈ 13.4 µM)
CC12CC34C=C(C#CC5(O)CCCCC5)C(=O)C(C)(CCC(=O)Nc5c(O)ccc(C(=O)O)c5O)C3C(CC1C4)O2 (centres unmarked) [B6]	4 µg/mL (≈ 7.1 µM)	4 µg/mL (≈ 7.1 µM)	4 µg/mL (≈ 7.1 µM)	4 µg/mL (≈ 7.1 µM)	4 µg/mL (≈ 7.1 µM)
C#CC1=CC23CC4CC(OC4(C)C2)C3C(C)(CCC(=O)Nc2c(O)ccc(C(=O)O)c2O)C1=O (centres unmarked) [B1]	8 µg/mL (≈ 17.2 µM)	8 µg/mL (≈ 17.2 µM)	8 µg/mL (≈ 17.2 µM)	8 µg/mL (≈ 17.2 µM)	8 µg/mL (≈ 17.2 µM)

These reach a lower MIC (MRSA 3). Values come first.

MIC (MRSA 3)	MIC (MRSA 4)	MIC (S. aureus ATCC 29213)	MIC (MSSA 2)	MIC (MSSA 1)	SMILES
2 µg/mL (≈ 3.81 µM)	2 µg/mL (≈ 3.81 µM)	2 µg/mL (≈ 3.81 µM)	2 µg/mL (≈ 3.81 µM)	2 µg/mL (≈ 3.81 µM)	COC(=O)C=CC1=CC23CC4CC(OC4(C)C2)C3C(C)(CCC(=O)Nc2c(O)ccc(C(=O)O)c2O)C1=O (centres unmarked) [A1]
1 µg/mL (≈ 1.85 µM)	1 µg/mL (≈ 1.85 µM)	1 µg/mL (≈ 1.85 µM)	1 µg/mL (≈ 1.85 µM)	1 µg/mL (≈ 1.85 µM)	CC12CC34C=C(C#Cc5ccccc5)C(=O)C(C)(CCC(=O)Nc5c(O)ccc(C(=O)O)c5O)C3C(CC1C4)O2 (centres unmarked) [B7]
1 µg/mL (≈ 1.75 µM)	1 µg/mL (≈ 1.75 µM)	1 µg/mL (≈ 1.75 µM)	1 µg/mL (≈ 1.75 µM)	1 µg/mL (≈ 1.75 µM)	COc1ccc(C#CC2=CC34CC5CC(OC5(C)C3)C4C(C)(CCC(=O)Nc3c(O)ccc(C(=O)O)c3O)C2=O)cc1 (centres unmarked) [B13]
1 µg/mL (≈ 1.92 µM)	1 µg/mL (≈ 1.92 µM)	1 µg/mL (≈ 1.92 µM)	1 µg/mL (≈ 1.92 µM)	1 µg/mL (≈ 1.92 µM)	CC(C)(C)C#CC1=CC23CC4CC(OC4(C)C2)C3C(C)(CCC(=O)Nc2c(O)ccc(C(=O)O)c2O)C1=O (centres unmarked) [B3]
1 µg/mL (≈ 1.8 µM)	1 µg/mL (≈ 1.8 µM)	1 µg/mL (≈ 1.8 µM)	1 µg/mL (≈ 1.8 µM)	1 µg/mL (≈ 1.8 µM)	CC12CC34C=C(C#Cc5cccc(N)c5)C(=O)C(C)(CCC(=O)Nc5c(O)ccc(C(=O)O)c5O)C3C(CC1C4)O2 (centres unmarked) [B9]
1 µg/mL (≈ 1.98 µM)	1 µg/mL (≈ 1.98 µM)	1 µg/mL (≈ 1.98 µM)	1 µg/mL (≈ 1.98 µM)	1 µg/mL (≈ 1.98 µM)	CC12CC34C=C(C#CC5CC5)C(=O)C(C)(CCC(=O)Nc5c(O)ccc(C(=O)O)c5O)C3C(CC1C4)O2 (centres unmarked) [B4]
1 µg/mL (≈ 1.87 µM)	1 µg/mL (≈ 1.87 µM)	1 µg/mL (≈ 1.87 µM)	1 µg/mL (≈ 1.87 µM)	1 µg/mL (≈ 1.87 µM)	CCCCCC#CC1=CC23CC4CC(OC4(C)C2)C3C(C)(CCC(=O)Nc2c(O)ccc(C(=O)O)c2O)C1=O (centres unmarked) [B5]
1 µg/mL (≈ 1.76 µM)	1 µg/mL (≈ 1.76 µM)	1 µg/mL (≈ 1.76 µM)	1 µg/mL (≈ 1.76 µM)	1 µg/mL (≈ 1.76 µM)	CCCCOC(=O)C=CC1=CC23CC4CC(OC4(C)C2)C3C(C)(CCC(=O)Nc2c(O)ccc(C(=O)O)c2O)C1=O (centres unmarked) [A3]
1 µg/mL (≈ 1.79 µM)	1 µg/mL (≈ 1.79 µM)	1 µg/mL (≈ 1.79 µM)	1 µg/mL (≈ 1.79 µM)	1 µg/mL (≈ 1.79 µM)	CC12CC34C=C(C#Cc5ccc(F)cc5)C(=O)C(C)(CCC(=O)Nc5c(O)ccc(C(=O)O)c5O)C3C(CC1C4)O2 (centres unmarked) [B14]
1 µg/mL (≈ 2.96 µM)	1 µg/mL (≈ 2.96 µM)	1 µg/mL (≈ 2.96 µM)	1 µg/mL (≈ 2.96 µM)	1 µg/mL (≈ 2.96 µM)	CC(=O)NC[C@H]1CN(c2ccc(N3CCOCC3)c(F)c2)C(=O)O1 [Linezolid, reference compound]
1 µg/mL (≈ 1.76 µM)	1 µg/mL (≈ 1.76 µM)	1 µg/mL (≈ 1.76 µM)	1 µg/mL (≈ 1.76 µM)	1 µg/mL (≈ 1.76 µM)	CCc1ccc(C#CC2=CC34CC5CC(OC5(C)C3)C4C(C)(CCC(=O)Nc3c(O)ccc(C(=O)O)c3O)C2=O)cc1 (centres unmarked) [B11]
1 µg/mL (≈ 1.92 µM)	1 µg/mL (≈ 1.92 µM)	1 µg/mL (≈ 1.92 µM)	1 µg/mL (≈ 1.92 µM)	1 µg/mL (≈ 1.92 µM)	CCCCC#CC1=CC23CC4CC(OC4(C)C2)C3C(C)(CCC(=O)Nc2c(O)ccc(C(=O)O)c2O)C1=O (centres unmarked) [B2]
1 µg/mL (≈ 1.74 µM)	1 µg/mL (≈ 1.74 µM)	1 µg/mL (≈ 1.74 µM)	1 µg/mL (≈ 1.74 µM)	1 µg/mL (≈ 1.74 µM)	CC12CC34C=C(C#Cc5ccc(Cl)cc5)C(=O)C(C)(CCC(=O)Nc5c(O)ccc(C(=O)O)c5O)C3C(CC1C4)O2 (centres unmarked) [B15]
